Test results published in paper PMC12480552 (Scientific Reports, 2025).
Marks after values point to notes of the source that are not given here.

Key:
in vivo [1] = assay: in vivo
Procedure: Female C57BL/6 mice were inoculated intracranially on the right side of the brain in the right frontal lobe with mouse glioblastoma (GL261) tumor cells (≈ 2 × 10^5) in 3 µL of phosphate-buffered saline for the tumor development. Mice were observed daily for clinical signs, and any mouse meeting predefined criteria for moribund status was euthanized. Criteria for moribund sacrifice included: ≥ 20% body weight loss or severe neurological symptoms (e.g., prostration, paralysis, seizures, hemorrhage).
Mice were euthanized by CO2 asphyxiation.
Brain tissue was weighed in polypropylene tubes, then PBS was added to the tissue sample before homogenization (1:4 wt: vol).
The LC-MS/MS system included an API-6500 triple quadrupole mass spectrometer (Sciex). Data were acquired and processed using Analyst® 1.7.2 software (Sciex). An Acquity UHPLC BEH C18 analytical column (1.7-µm, 2.1 × 50 mm; Waters) was applied in sample analysis.
For olaparib, the LLQ was 5.00 ng/mL, and the HLQ was 1000 ng/mL.
(§1) First, the brain tissue partition coefficient Kp, brain was calculated using Eq. (1).
(§2) Where Css, brain is the mean steady-state total drug concentration in brain tissue, and Css, plasma is the mean steady-state total drug concentration in plasma (both measured by LC-MS/MS). […] Finally, Kp, uu, brain was calculated using Eq. (2).2 [drawing 2]

in vitro [2] = conditions: pH 7.4
Text: (§3) The luciferase-transfected human breast cancer cell line (MDA231-BrM2-831) was purchased from Memorial Sloan Kettering Cancer Center (New York, NY). […] Deuterated olaparib (olaparib-d8) was purchased from Alsachim (Illkirch Graffenstaden, France). Cynomolgus macaque brain tissue (lot #CYN252598), rhesus macaque brain tissue (lot #RHS24901), rhesus macaque plasma (lot #RHS24900), CD1 mouse brain tissue (lot #MSE343926), and CD1 mouse plasma (lot #MSE343926) used in the protein-binding assays were obtained from BioIVT (Westbury, NY).
(§4) Brain (diluted 1:4 [5×] in PBS) or plasma (undiluted) were spiked with each test compound and applied to each matrix. Aliquots of each mixture were added to the donor wells of a rapid equilibrium dialysis plate in triplicate, and blank PBS was added to each receiver well, at volumes recommended by the manufacturer. Plates were incubated with shaking at 200 rpm for 4 h at 37 °C. At the end of incubation, samples were collected from each donor and receiver well. Samples were matrix-matched with the addition of an equivalent volume of blank matrix to each receiver sample and blank PBS to each donor sample. Additional samples were collected from each incubation mixture at the beginning (T = 0 min) and end (T = 240 min) of incubation for determination of stability, and matrix-matched with PBS as described above. The resultant samples were extracted by protein precipitation with acetonitrile containing an analytical internal standard, centrifuged, and analyzed by LC-MS/MS.

human P-gp = conditions: MDCKII cells overexpressing human P-gp; cited from earlier work
in vivo [3] = conditions: male, rhesus monkey; for Kp / Kp uu: brain
Procedure: Animals were randomized using the GSK Randomization App 2.0, which is an internal software tool that uses the ‘sample’ function in R to randomly shuffle animal IDs, then assigns them to treatment groups to ensure unbiased allocation.
Before each dose, animals were lightly sedated with an intramuscular injection of ketamine (5–10 mg/kg), and a blood sample was drawn. […] NHPs were euthanized by administering an overdose of injected sodium pentobarbital IV (150–200 mg/kg) and confirmed by thoracotomy and exsanguination. Terminal plasma, cerebrospinal fluid, and brain tissue were collected at necropsy. […] The brain was cut into six roughly 1-cm thick coronal segments before snap-freezing by floating on liquid nitrogen. The right hemispheres of the four interior coronal brain segments were cryosectioned and analyzed by matrix-assisted laser desorption/ionization mass spectrometry imaging (MALDI MSI) to quantitatively assess the tissue distribution of the dosed compounds[40]–[43]. After MALDI MSI analysis, tissue sections were stained with hematoxylin and eosin (H&E) for correlation of ion images with underlying tissue histology.
Brain tissue was weighed in polypropylene tubes, then phosphate-buffered saline (PBS) was added to the tissue sample before homogenization (1:4 wt: vol).
The LC-MS/MS system includes an API-6500 triple quadrupole mass spectrometer (Sciex, Framingham, MA) and an ExionLC system (ExionLC Controller, ExionLC AD Column Oven, ExionLC AD Pump, and ExionLC AD Multiplate Sampler; all from Sciex). Data were acquired and processed using Analyst® 1.7.2 software (Sciex). An Acquity UHPLC BEH C18 analytical column (1.7-µm, 2.1 × 50 mm; Waters, Milford, MA) was applied in sample analysis.
as §1, §2

in vitro [4] = conditions: rhesus monkey, pH 7.4
Text: as §3, §4

[5] = female, C57BL/6, mouse, brain tumor, oral
[6] = female, C57BL/6, mouse, contralateral normal brain, oral
[7] = female, C57BL/6, mouse, contralateral normal brain/plasma, oral
[8] = female, C57BL/6, mouse, normal brain, oral, 35 mg/kg

Compound: O=C(c1cc(Cc2n[nH]c(=O)c3ccccc23)ccc1F)N1CCN(C(=O)C2CC2)CC1 [Olaparib]
- Kp, brain (in vivo [1]; 2 h since dose, normal brain): 0.031
- Brain tumor, mean (SD) (in vivo [1]; 24 h since dose, n = 9, olaparib: only three of nine animals had detectable drug levels): 78 (92)^d ng/g
- Kp at 2 h (in vivo [1]; [5]): 0.126
- concentration at 24 h (in vivo [1]; [6]): 8 ng/g
- Kp at 2 h (in vivo [1]; [7]): 0.031
- Kp uu at 2 h (in vivo [1]; female, C57BL/6, mouse, in vivo): 0.02
- fraction unbound at 4 h, 1 µM (in vitro [2]; CD1, mouse, brain homogenate): 0.23
- Fu (in vitro [2]; CD1, mouse, plasma, 4 h, 1 µM): 35.2%
- P-gp substrate status (human P-gp): substrates for P-gp
- Kp, brain (in vivo [3]): 0.044
- Kp, uu, brain (in vivo [3]): 0.028
- Kp (in vivo [3]; Kp): 0.037
- Kp uu (in vivo [3]; Kp): 0.024
- Kp (in vivo [3]; Mean Kp): 0.041
- Kp uu (in vivo [3]; Mean Kp): 0.026
- fraction unbound at 4 h, 1 µM (in vitro [4]; brain homogenate): 0.194
- fraction unbound at 4 h, 1 µM (in vitro [4]; plasma): 0.301

Compound: NC(=O)c1cccc2cn(-c3ccc([C@@H]4CCCNC4)cc3)nc12 [Niraparib]
- Kp at 2 h (in vivo [1]; [5]): 0.893
- concentration at 24 h (in vivo [1]; [5]): 436 ng/g
- Kp at 24 h (in vivo [1]; female, C57BL/6, mouse, brain tumor, oral, 35 mg/kg): 0.465
- concentration at 24 h (in vivo [1]; [6]): 171 ng/g
- Kp uu at 2 h (in vivo [1]; [7]): 0.011
- Kp at 2 h (in vivo [1]; female, C57BL/6, mouse, normal brain, oral): 0.08
- Kp at 24 h (in vivo [1]; [8]): 0.182
- Kp uu at 24 h (in vivo [1]; [8]): 0.025
- fraction unbound at 4 h, 1 µM (in vitro [2]; brain homogenate (diluted 1:4 [5×] in PBS)): 0.0295
- fraction unbound at 4 h, 1 µM (in vitro [2]; cynomolgus monkey, brain homogenate (diluted 1:4 [5×] in PBS)): 0.0361
- fraction unbound at 4 h, 1 µM (in vitro [2]; plasma (undiluted)): 0.22
- P-gp substrate status (human P-gp): substrates for P-gp
- Kp (in vivo [3]; Mean Kp): 3.18
- Kp uu (in vivo [3]; Mean Kp): 0.313
- fraction unbound at 4 h, 1 µM (in vitro [4]; plasma (undiluted)): 0.366
